Here are results for three compounds from article PMC12244496 (bioRxiv, 2025).

The test system of one assay is mESCs. Nature of the assay: Recovery of H3K27me1/2/3 in mESCs after tazemetostat treatment. It is filed as cell-based, mouse. The following applies: 10 μM for 7 days.
In another assay the target is core PRC2 (Homo sapiens, UniProt O75530+Q15910). Nature of the assay: PRC2-core activity assay. The note with it: 50 μM peptide; histone H3 peptide (residues 21–44) substrate. Format: biochemical.

Where no end group is shown, it is not given here. [ ]: non-standard residue; d: D form. Lys(Me3) = C[N+](C)(C)CCCC[C@H](N)C(=O)O

Chain of core PRC2 (Q15910 whole entry, the tested form may be a part): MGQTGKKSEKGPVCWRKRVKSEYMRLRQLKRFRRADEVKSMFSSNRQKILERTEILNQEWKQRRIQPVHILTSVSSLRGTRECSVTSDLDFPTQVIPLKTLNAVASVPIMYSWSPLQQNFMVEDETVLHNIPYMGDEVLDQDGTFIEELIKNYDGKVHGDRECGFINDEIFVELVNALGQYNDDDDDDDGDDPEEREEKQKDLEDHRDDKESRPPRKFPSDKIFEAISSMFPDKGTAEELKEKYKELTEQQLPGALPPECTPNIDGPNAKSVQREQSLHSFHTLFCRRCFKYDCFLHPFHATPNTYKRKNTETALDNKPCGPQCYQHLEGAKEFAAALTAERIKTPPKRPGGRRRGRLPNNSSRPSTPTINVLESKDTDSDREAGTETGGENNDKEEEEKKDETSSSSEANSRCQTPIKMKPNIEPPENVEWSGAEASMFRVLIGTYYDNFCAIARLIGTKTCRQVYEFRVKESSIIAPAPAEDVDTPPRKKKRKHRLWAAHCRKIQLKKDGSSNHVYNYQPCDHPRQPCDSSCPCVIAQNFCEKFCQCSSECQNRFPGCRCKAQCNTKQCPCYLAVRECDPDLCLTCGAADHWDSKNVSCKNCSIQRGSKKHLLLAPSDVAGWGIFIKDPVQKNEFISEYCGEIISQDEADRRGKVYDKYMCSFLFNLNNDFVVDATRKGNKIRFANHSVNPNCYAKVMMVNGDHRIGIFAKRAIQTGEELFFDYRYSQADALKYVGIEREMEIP
Chain of core PRC2 (O75530 whole entry, the tested form may be a part): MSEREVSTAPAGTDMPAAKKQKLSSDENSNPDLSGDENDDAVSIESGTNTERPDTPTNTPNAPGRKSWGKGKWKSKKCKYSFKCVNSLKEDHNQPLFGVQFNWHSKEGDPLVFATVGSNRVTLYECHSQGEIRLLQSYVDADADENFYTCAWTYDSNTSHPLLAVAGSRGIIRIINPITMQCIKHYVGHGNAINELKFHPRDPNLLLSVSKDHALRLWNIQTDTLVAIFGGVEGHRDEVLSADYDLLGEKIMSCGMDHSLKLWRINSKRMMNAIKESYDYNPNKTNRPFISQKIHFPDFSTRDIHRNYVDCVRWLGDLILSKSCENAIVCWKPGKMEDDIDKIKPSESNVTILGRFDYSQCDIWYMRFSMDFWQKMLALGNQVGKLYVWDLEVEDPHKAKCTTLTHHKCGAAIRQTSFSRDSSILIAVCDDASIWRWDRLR
Chain of core PRC2 (Q15022 whole entry partner, the tested form may be a part): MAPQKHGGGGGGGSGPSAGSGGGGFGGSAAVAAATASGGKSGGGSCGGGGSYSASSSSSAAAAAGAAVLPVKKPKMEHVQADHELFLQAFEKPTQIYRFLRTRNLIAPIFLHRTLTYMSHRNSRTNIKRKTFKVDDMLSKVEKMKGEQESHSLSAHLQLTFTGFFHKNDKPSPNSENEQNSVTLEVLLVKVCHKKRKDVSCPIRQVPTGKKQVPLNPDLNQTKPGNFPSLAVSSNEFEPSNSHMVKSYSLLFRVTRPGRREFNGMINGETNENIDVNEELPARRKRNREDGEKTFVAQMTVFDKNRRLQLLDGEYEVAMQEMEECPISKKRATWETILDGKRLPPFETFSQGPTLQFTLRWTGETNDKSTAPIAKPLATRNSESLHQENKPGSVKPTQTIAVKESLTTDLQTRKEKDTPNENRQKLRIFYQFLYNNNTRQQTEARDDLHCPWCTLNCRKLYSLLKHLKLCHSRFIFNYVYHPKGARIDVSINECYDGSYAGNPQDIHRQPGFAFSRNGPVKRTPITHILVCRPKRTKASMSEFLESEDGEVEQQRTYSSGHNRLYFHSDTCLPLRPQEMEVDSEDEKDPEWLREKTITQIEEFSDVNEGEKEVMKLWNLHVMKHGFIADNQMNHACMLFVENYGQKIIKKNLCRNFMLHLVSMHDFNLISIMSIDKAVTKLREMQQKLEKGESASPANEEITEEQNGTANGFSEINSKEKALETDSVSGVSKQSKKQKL
Chain of core PRC2 (Q09028 whole entry partner, the tested form may be a part): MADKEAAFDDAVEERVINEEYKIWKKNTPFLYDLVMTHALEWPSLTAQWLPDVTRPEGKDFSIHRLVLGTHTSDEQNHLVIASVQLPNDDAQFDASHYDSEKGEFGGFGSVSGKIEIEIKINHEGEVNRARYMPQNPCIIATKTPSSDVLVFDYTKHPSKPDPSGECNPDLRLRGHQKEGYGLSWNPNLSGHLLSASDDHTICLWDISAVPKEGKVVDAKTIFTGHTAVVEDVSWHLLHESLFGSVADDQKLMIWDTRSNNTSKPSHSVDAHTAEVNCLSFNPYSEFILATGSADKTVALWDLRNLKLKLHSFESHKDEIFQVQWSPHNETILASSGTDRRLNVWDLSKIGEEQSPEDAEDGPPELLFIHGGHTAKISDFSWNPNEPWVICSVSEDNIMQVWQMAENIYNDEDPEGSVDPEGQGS

In the case of `CCN(c1cc(-c2ccc(CN3CCOCC3)cc2)cc(C(=O)NCc2c(C)cc(C)[nH]c2=O)c1C)C1CCOCC1` [tazemostat, tazemetostat], the “depletion of H3K27me1/2/3” value with mESCs was “completely depleted”.

Regarding KAAR[Lys(Me3)]SAPA [compound 2], the “PRC2 activity (%)” value at core PRC2 turned out to be 583±28%.

Regarding TKAAR[Lys(Me3)]SA [compound 4], the “PRC2 activity (%)” value at core PRC2 is on record as 485±93%.
